Measured values as given in the NIST ThermoML archive (doi:10.1021/je034162x).

Settings: 101.33 kPa, Liquid, Hot wire method

CCc1ccccc1 [ethylbenzene]
Settings	thermal conductivity [W/m/K]	thermal diffusivity [m2/s]
258 K	0.1375	–
258.29 K	0.1374	–
258.5 K	0.1373	–
259.49 K	–	9.45e-08
260.41 K	–	9.43e-08
261.06 K	–	9.41e-08
277.34 K	0.1328	–
277.65 K	0.1327	–
277.88 K	0.1326	–
278.88 K	–	9.04e-08
279.84 K	–	9.02e-08
280.53 K	–	9.02e-08
295.86 K	0.1282	–
296.19 K	0.128	–
296.42 K	0.128	–
297.44 K	–	8.66e-08
298.45 K	–	8.67e-08
299.16 K	–	8.66e-08
312.38 K	0.124	–
312.72 K	0.1238	–
312.96 K	0.1237	–
313.99 K	–	8.29e-08
315.01 K	–	8.28e-08
315.73 K	–	8.28e-08
329.05 K	0.1199	–
329.41 K	0.1197	–
329.66 K	0.1196	–
330.69 K	–	7.97e-08
331.74 K	–	7.96e-08
332.49 K	–	7.95e-08

C=CCCCC [hex-1-ene]
Settings	thermal conductivity [W/m/K]	thermal diffusivity [m2/s]
259.93 K	0.1304	–
260.19 K	0.1305	–
260.47 K	0.1303	–
261.24 K	–	9.12e-08
262.13 K	–	9.15e-08
263.04 K	–	9.14e-08
275.98 K	0.1247	–
276.28 K	0.1249	–
276.6 K	0.1245	–
277.38 K	–	8.63e-08
278.3 K	–	8.69e-08
279.25 K	–	8.67e-08
295.84 K	0.1181	–
296.26 K	0.1178	–
296.53 K	0.1179	–
297.34 K	–	8.25e-08
298.59 K	–	8.22e-08
299.33 K	–	8.2e-08
301.27 K	0.1161	–
301.73 K	0.116	–
301.96 K	0.1158	–
302.77 K	–	8.05e-08
304.08 K	–	8.06e-08
304.81 K	–	8.04e-08
314.67 K	0.1119	–
315.04 K	0.1115	–
315.38 K	0.1112	–
316.21 K	–	7.67e-08
317.27 K	–	7.71e-08
318.31 K	–	7.68e-08
329.14 K	0.1071	–
329.53 K	0.107	–
329.89 K	0.1068	–
330.76 K	–	7.42e-08
331.81 K	–	7.39e-08
332.96 K	–	7.4e-08

CC(C)c1ccccc1 [isopropylbenzene]
Settings	thermal conductivity [W/m/K]	thermal diffusivity [m2/s]
261.13 K	0.1263	–
261.33 K	0.1262	–
261.48 K	0.1262	–
261.85 K	–	8.45e-08
262.36 K	–	8.45e-08
262.72 K	–	8.44e-08
275.03 K	0.1238	–
275.24 K	0.1237	–
275.4 K	0.1237	–
275.75 K	–	8.18e-08
276.27 K	–	8.21e-08
276.65 K	–	8.22e-08
294.11 K	0.1202	–
294.32 K	0.12	–
294.47 K	0.1199	–
294.85 K	–	7.92e-08
295.35 K	–	7.86e-08
295.72 K	–	7.86e-08
312.46 K	0.1164	–
312.68 K	0.1163	–
312.84 K	0.1162	–
313.18 K	–	7.51e-08
313.72 K	–	7.54e-08
314.09 K	–	7.53e-08
329.45 K	0.1128	–
329.68 K	0.1127	–
329.83 K	0.1126	–
330.17 K	–	7.21e-08
330.7 K	–	7.21e-08
331.08 K	–	7.21e-08

CC1CCCC1 [methylcyclopentane]
Settings	thermal conductivity [W/m/K]	thermal diffusivity [m2/s]
258.71 K	0.1273	–
258.96 K	0.1271	–
259.11 K	0.127	–
259.52 K	–	9.4e-08
260.16 K	–	9.37e-08
260.57 K	–	9.34e-08
277 K	0.1212	–
277.24 K	0.1211	–
277.41 K	0.121	–
277.86 K	–	8.8e-08
278.49 K	–	8.85e-08
278.91 K	–	8.82e-08
294.9 K	0.1155	–
295.15 K	0.1154	–
295.32 K	0.1153	–
295.76 K	–	8.24e-08
296.37 K	–	8.25e-08
296.8 K	–	8.24e-08
312.57 K	0.1101	–
312.82 K	0.11	–
312.99 K	0.1099	–
313.44 K	–	7.77e-08
314.04 K	–	7.73e-08
314.46 K	–	7.71e-08

C=CCCCCCC [oct-1-ene]
Settings	thermal conductivity [W/m/K]	thermal diffusivity [m2/s]
259.69 K	0.1354	–
259.9 K	0.1353	–
260.06 K	0.1353	–
260.46 K	–	9.04e-08
261.02 K	–	9.07e-08
261.42 K	–	9.09e-08
279.34 K	0.1294	–
279.57 K	0.1294	–
279.72 K	0.129	–
280.08 K	–	8.39e-08
280.66 K	–	8.48e-08
281.06 K	–	8.49e-08
296.88 K	0.124	–
297.14 K	0.124	–
297.28 K	0.124	–
297.65 K	–	7.98e-08
298.28 K	–	8e-08
298.61 K	–	8.02e-08
315.82 K	0.1185	–
316.07 K	0.1186	–
316.24 K	0.1186	–
316.57 K	–	7.49e-08
317.19 K	–	7.58e-08
317.61 K	–	7.61e-08
326.44 K	0.1155	–
326.7 K	0.1156	–
326.87 K	0.1156	–
327.18 K	–	7.24e-08
327.82 K	–	7.35e-08
328.26 K	–	7.38e-08

CCCc1ccccc1 [propylbenzene]
Settings	thermal conductivity [W/m/K]	thermal diffusivity [m2/s]
261.18 K	0.1358	–
261.4 K	0.1357	–
261.57 K	0.1356	–
262.04 K	–	9.04e-08
262.63 K	–	9.06e-08
263.06 K	–	9.06e-08
275.09 K	0.133	–
275.33 K	0.1328	–
275.5 K	0.1328	–
275.98 K	–	8.84e-08
276.61 K	–	8.87e-08
277.03 K	–	8.85e-08
294.17 K	0.1286	–
294.42 K	0.1285	–
294.6 K	0.1285	–
295.08 K	–	8.49e-08
295.74 K	–	8.53e-08
296.19 K	–	8.52e-08
312.54 K	0.1247	–
312.79 K	0.1246	–
312.97 K	0.1245	–
313.45 K	–	8.14e-08
314.1 K	–	8.16e-08
314.56 K	–	8.15e-08
329.54 K	0.1208	–
329.79 K	0.1207	–
329.98 K	0.1207	–
330.45 K	–	7.8e-08
331.09 K	–	7.79e-08
331.57 K	–	7.81e-08

[2H]c1c([2H])c([2H])c(C([2H])([2H])[2H])c([2H])c1[2H] [toluene-d8]
Settings	thermal conductivity [W/m/K]	thermal diffusivity [m2/s]
259.69 K	0.1349	–
259.91 K	0.1348	–
260.06 K	0.1348	–
260.47 K	–	8.33e-08
261.03 K	–	8.36e-08
261.42 K	–	8.36e-08
279.35 K	0.1298	–
279.57 K	0.1297	–
279.73 K	0.1296	–
280.14 K	–	7.9e-08
280.69 K	–	7.9e-08
281.08 K	–	7.88e-08
296.9 K	0.1251	–
297.13 K	0.1249	–
297.28 K	0.1249	–
297.69 K	–	7.52e-08
298.25 K	–	7.51e-08
298.64 K	–	7.51e-08
315.84 K	0.12	–
316.08 K	0.1199	–
316.24 K	0.1198	–
316.65 K	–	7.15e-08
317.21 K	–	7.13e-08
317.61 K	–	7.11e-08
326.47 K	0.1173	–
326.7 K	0.1172	–
326.87 K	0.117	–
327.28 K	–	6.95e-08
327.85 K	–	6.93e-08
328.25 K	–	6.9e-08
